Source: paper PMC9599717, “The Multicellular Effects of VDAC1 N-Terminal-Derived Peptide” (Biomolecules, 2022)

Legend:
U-87MG cells [1] = assay: Cell migration / wound-healing assay; type: cell-based, human; conditions: 20 μM peptide, 24 h, untreated cells 64%
Description: color was read in a spectrophotometer at 680 nm. A standard curve was obtained using D-glucose (0–20 µg) subjected to anthrone in a sulfuric acid treatment, as described above.
Lysosomal vacuolation observed with acridine orange (AO) staining
(§1) U-87MG cells were treated with D-Δ(1-18)N-Ter-Antp peptide in serum-free DMEM media for 6 h at 37℃, incubated with acridine orange (1 μg/ml) for 15 min, visualized by fluorescence microscopy (Olympus LX2 - KSP, Tokyo, Japan), and images were captured with a CCD camera. About 200 cells were counted for each […]
Cell migration assay/wound-healing assay
U-87MG cells were seeded in 12-well plates and cultured. When reaching around 90% confluence, a straight scratch was mechanically made with a sterile 10-µl pipette tip. The cells were treated with various concentrations of D-Δ(1-18)N-Ter-Antp peptide in serum-free DMEM media for the indicated time points. The images of the wounds were captured at different time points using a digital camera mounted on a microscope to follow the position of the migrating front at defined times. […]
Summary of the peptide concentrations (µM) required for half-maximal cell death activity (IC50) in various cancer cell lines. […] Cell death was determined by PI staining and FACS analysis. […]

U-87MG cells [2] = assay: Cell senescence assay (β-galactosidase activity); type: cell-based, human; conditions: 12 h / 6 h (supplementary method)
Description: Figure 3 The D-Δ(1-18)N-Ter-Antp peptide induced autophagy and cellular senescence and altered the expression of apoptosis-related proteins. (A,B) U-87MG cells were treated with the indicated concentrations of D-Δ(1-18)N-Ter-Antp peptide for 12 h and then were subjected to immunoblotting for caspase-9, AIF, Bcl-xL, Bcl-2, and Bax and the relative expression level was quantified (B). (C,D) U-87MG cells were treated with the indicated concentrations of D-Δ(1-18)N-Ter-Antp peptide for 12 h and then subjected to immunoblotting for the autophagy markers LC3-I and LC3-II (C) and LC3-II quantification (D). (E,F) U-87MG cells were treated with the indicated concentrations of D-Δ(1-18)N-Ter-Antp peptide for 12 h and then subjected to β-gal activity (blue). Mouse embryonic fibroblast cells at passage 10 (MEF-P10) served as a positive control of senescent cells. Quantification of β-gal staining intensity (F). Data are presented as the mean ± SD, n = 3, * p < 0.05; ** p < 0.01; *** p < 0.001 versus control group. NS, non-specific. […]
color was read in a spectrophotometer at 680 nm. […]
as §1

19-FTKGYGFGL-26- RQIKIWFQNRRMKWKK [D-Δ(1-18)N-Ter-Antp]
Gap closed in wound-healing assay (U-87MG cells [1]): 17% | Cellular senescence, β-galactosidase activity (U-87MG cells [2]): showed cellular senescence
